Read-outs that look alike come from different tables or passages of the source.
How the values were obtained:
[1] = tested on: fat-3(wa22) mutant; assay: Development monitoring after dietary PUFA supplementation; type: in vivo, C. elegans; settings: 200 μM in E. coli OP50 diet, 36 h after hatching, 23 °C
Experimental: Ten mM stock solutions of AA, ω-3 AA and JuA were prepared in DMSO and kept at −20 °C. These stocks were diluted in E. coli OP50 to a final concentration of 200 μM, and 100 μL of the volume was seeded onto each plate, with appropriate DMSO controls, allowing drying for 1 h in the dark. The animals that were treated with the PUFAs from hatching were allowed to grow on these plates until they reached L4 larval stage. For monitoring the development N2 (WT) and fat-3(wa22) gravid animals were allowed to lay eggs for 2–3 h. These eggs were transferred onto NGM plates supplemented with PUFAs as described above. Their growth was monitored and then imaged using an AmScope MU1000 camera, USA.

[2] = tested on: N2 (WT) animals; assay: Lifespan assay, N2 (WT); type: in vivo, C. elegans; settings: supplementation, 23 °C, 50 μg/mL FUDR
Experimental: (§1) Ten mM stock solutions of AA, ω-3 AA and JuA were prepared in DMSO and kept at −20 °C. These stocks were diluted in E. coli OP50 to a final concentration of 200 μM, and 100 μL of the volume was seeded onto each plate, with appropriate DMSO controls, allowing drying for 1 h in the dark. The animals that were treated with the PUFAs from hatching were allowed to grow on these plates until they reached L4 larval stage.
All lifespan assays were carried out at 23 °C. Synchronized populations were obtained by allowing 10–15 hermaphrodites lay eggs overnight, and the next day the parents were removed. The eggs were allowed to hatch and 30 L4/young adult animals per plate (NGM plate containing 50 μg/mL FUDR to prevent the growth of progeny) were used for each assay. All the assays were carried out at least in triplicates and a minimum of two independent trials were performed for all conditions. The dead animals were counted starting the next day and exploding, protruding, bagging or contaminated animals were censored if applicable. We defined the day when we transferred the L4/young adult animals as day 0 of adult age. All statistical analyses were carried out using results that were analyzed with GraphPad Prism 5®. Kaplan–Meier lifespan analysis was carried out, and p values were calculated using the log-rank test. p < 0.05 was accepted as statistically significant.

[3] = tested on: fat-3(wa22) mutant; assay: Brood size assay after dietary PUFA supplementation; type: in vivo, C. elegans; settings: for hatching and brood size defects: fat-3(wa22), 200 μM in E. coli OP50 diet, p < 0.0001
Experimental: as §1
N2 (WT) and fat-3(wa22) were transferred onto NGM plates supplemented with PUFAs as described above. Once they reached L4 larval stage, one worm per plate was transferred to a plate freshly seeded with PUFAs and allowed to grow at 23 °C. These animals were transferred to new plates every 24 h until they ceased to lay eggs. The number of hatched progeny was checked and counts were performed after the population reached L3/L4 stage. This assay was carried out in three independent trials. Results were analyzed with GraphPad Prism 5®, San Diego, CA, USA. The data were pooled and analyzed using Student’s t test. p < 0.05 was accepted as statistically significant.
The RNA interference (RNAi) by feeding assay was performed on NGM agar plates supplemented with additional antibiotics ([…], […]) and 0.8 mM isopropyl-β-D-thiogalactopyranosid (IPTG). The Ahringer RNAi collection was used, E. coli HT115 bacteria containing RNAi vectors expressing double-stranded RNA of the genes fat-4, elo-1, and elo-2 were pre-cultured, induced with IPTG, and used as nematode food as described previously. Assays were carried out on plates seeded with RNAi bacteria induced overnight; the PUFAs were dissolved in sterile distilled water, and then overlaid on the plates just before the assays.

[4] = target: T1, NPR-32 (Caenorhabditis elegans, UniProt O62403); assay: NPR-32 competitive binding assay with [3H]CP55,940 on N2 (WT) membrane preparations; parameters: species or system C. elegans
T1 sequence (O62403 1-440): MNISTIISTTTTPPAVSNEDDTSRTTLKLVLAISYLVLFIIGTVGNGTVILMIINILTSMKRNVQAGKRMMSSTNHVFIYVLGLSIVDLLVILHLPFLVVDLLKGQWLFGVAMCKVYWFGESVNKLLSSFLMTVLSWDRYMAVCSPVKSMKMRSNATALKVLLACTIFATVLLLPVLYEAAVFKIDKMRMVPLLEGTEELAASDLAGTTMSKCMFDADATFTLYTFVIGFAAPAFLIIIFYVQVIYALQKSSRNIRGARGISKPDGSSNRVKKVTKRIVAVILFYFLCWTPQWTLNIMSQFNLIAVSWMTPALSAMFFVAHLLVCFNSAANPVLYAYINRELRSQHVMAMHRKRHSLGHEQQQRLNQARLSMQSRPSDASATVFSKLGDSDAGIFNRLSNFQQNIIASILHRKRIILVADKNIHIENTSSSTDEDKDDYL
Experimental: (§2) Worm homogenization and membrane preparation: the animals were collected from NGM plates as described before. The animals were freshly broken/homogenized by tip sonication before the beginning of every assays in S-basal and then a protein estimation was carried out for these samples, by a standard BCA kit (Sigma-Aldrich, St. Louis, MO, USA). For membrane preparations the worm pellet was resuspended in homogenization buffer (50 mM Tris HCl pH = 7.4, 3 mM MgCl2, 1 mM EGTA). Next, the homogenate was transferred to an ultracentrifuge tube and spun at 100,000× g for 60 min at 4 °C. The supernatant was carefully removed and the pellet was gently washed. Then, the pellet was resuspended with the help of a polytron in 50 mM Tris HCl pH = 7.4 and passed through a clean syringe. Finally, the sample was sonicated in a water bath for 5 min. A protein estimation for the membranes was carried out and the aliquots were frozen and stored at −80 °C.
CP55,940 for 75 min at 30 °C. After the incubation time, membrane suspensions were rapidly filtered through a 0.1% polyethyleneimine presoaked 96-well microplate bonded with GF/B glass fiber filters (UniFilter-96 GF/B, PerkinElmer Life Sciences) under vacuum and washed 12 times with 120 µL of washing buffer (50 mM Tris-HCl, 2.5 mM EDTA, 5 mM MgCl2, 0.5% BSA, pH 7.5). […] The results were analyzed with GraphPad Prism 5® and expressed as % of [^3H]CP55,940 binding. IC50 values of each compound were estimated from fitted nonlinear curves and were used to calculate the Ki values by applying the Cheng-Prusoff equation.

[5] = target: T2, FAAH-1 (Caenorhabditis elegans, UniProt Q17449); assay: Competitive [3H]AEA hydrolysis assay in whole worm homogenate; type: biochemical, C. elegans
T2 construct: from tissue; host or cells: whole C. elegans worm homogenate
T2 sequence (Q17449 15-572): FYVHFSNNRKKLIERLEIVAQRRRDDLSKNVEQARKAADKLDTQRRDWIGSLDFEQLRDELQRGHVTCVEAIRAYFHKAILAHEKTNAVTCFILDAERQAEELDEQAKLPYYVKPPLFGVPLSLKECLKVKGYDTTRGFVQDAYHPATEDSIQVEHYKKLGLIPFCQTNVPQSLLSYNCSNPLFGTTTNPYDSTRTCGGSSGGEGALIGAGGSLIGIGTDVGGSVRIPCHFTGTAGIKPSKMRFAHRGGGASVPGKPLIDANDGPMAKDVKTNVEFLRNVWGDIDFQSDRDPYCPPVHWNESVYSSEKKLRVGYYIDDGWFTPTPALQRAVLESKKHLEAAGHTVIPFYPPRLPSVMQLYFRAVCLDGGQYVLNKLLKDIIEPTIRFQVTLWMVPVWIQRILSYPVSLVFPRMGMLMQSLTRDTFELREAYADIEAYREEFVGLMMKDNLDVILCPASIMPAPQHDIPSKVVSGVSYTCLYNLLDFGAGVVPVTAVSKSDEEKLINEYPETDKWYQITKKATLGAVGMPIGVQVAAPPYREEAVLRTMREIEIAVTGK
Experimental: as §2
(§3) AEA and [^3H] 2-OG, respectively. The reaction was performed using worm homogenate (200 or 100 µg per sample) or pig brain homogenate (200 µg per sample) in 194 μL of assay buffer (10 mM Tris-HCl, 1 mM EDTA, 0.1 % BSA, pH 8.0). […] Signal was detected with TRICARB 2100TR scintillation counter and results were analyzed with GraphPad Prism 5® and expressed as [^3H] […]

[6] = target: T3, FAAH (Sus scrofa, UniProt Q9TUI8); assay: Competitive [3H]AEA hydrolysis assay in pig brain homogenate; type: biochemical
T3 construct: or pig brain homogenate (200 µg per sample); from tissue; host or cells: pig brain homogenate
T3 sequence (Q9TUI8 1-579): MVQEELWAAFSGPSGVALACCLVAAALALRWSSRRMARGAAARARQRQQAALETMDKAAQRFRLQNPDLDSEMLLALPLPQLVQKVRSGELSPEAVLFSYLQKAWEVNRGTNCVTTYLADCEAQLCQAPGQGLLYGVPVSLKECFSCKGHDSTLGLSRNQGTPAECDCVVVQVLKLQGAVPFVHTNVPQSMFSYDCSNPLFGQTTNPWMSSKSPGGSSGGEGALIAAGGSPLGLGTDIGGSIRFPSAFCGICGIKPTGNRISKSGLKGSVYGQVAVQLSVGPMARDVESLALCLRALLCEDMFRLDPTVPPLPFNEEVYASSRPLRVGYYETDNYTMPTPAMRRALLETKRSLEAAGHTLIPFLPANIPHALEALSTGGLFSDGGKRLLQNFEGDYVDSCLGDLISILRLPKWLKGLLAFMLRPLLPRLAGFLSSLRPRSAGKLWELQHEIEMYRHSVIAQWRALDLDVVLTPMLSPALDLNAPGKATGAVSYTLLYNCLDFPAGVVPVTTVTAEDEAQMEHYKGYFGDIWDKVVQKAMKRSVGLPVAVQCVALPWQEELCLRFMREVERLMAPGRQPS
Experimental: AEA and [^3H] 2-OG, respectively. The reaction was performed using worm homogenate (200 or 100 µg per sample) or pig brain homogenate (200 µg per sample) in 194 μL of assay buffer (10 mM Tris-HCl, 1 mM EDTA, 0.1 % BSA, pH 8.0). […] The reaction was stopped by adding 400 μL of ice-cold mixture CHCl3-CH3OH (1:1 v/v), and, subsequently, tubes were vortexed and centrifuged for 10 min at 4 °C and 10,000 rpm. Finally, the upper aqueous phase was transferred to scintillation vials and mixed with 3 mL of Ultima Gold scintillation liquid. Signal was detected with TRICARB 2100TR scintillation counter and results were analyzed with GraphPad Prism 5® and expressed as [^3H] AEA or [^3H] 2-OG hydrolysis (% of vehicle).

[7] = tested on: 2-OG hydrolysis in whole worm homogenates; assay: Competitive [3H]2-OG hydrolysis assay in whole worm homogenate; type: biochemical, C. elegans
Experimental: as §2, §3

[8] = tested on: MAGL; assay: Competitive [3H]2-OG hydrolysis assay in pig brain homogenate; type: biochemical
[9] = displacement of 3 nM [3H]CP55,940, N2 (WT) membranes, 5 µM JZL-195 preincubation; apparent Ki by Cheng-Prusoff; 95% CI; read-out: Ki, NPR-32 binding
[10] = read-out: Ki, NPR-32 binding; displacement of 3 nM [3H]CP55,940, N2 (WT) membranes, 5 µM JZL-195 preincubation; apparent Ki by Cheng-Prusoff; 95% CI

CC/C=C\C/C=C\C/C=C\C/C=C\CCCCCCC(=O)O [ω-3 AA, Omega-3 arachidonic acid]
recovery of growth and development defects [1]: significant recovery of growth and development defects
effect on lifespan [2]: did not affect the lifespan
hatching and brood size defects [3]: recovered

CC/C=C\C/C=C\C/C=C\CCCC/C=C\CCCC(=O)NCCO [JEA, N-juniperoyl ethanolamine]
Ki [4, 9]: 740 nM
competition with AEA hydrolysis ([5]; whole worm homogenates): competed
hydrolysis by FAAH (competition with tritiated AEA) [6]: readily hydrolyzed

CCCCC/C=C\C/C=C\C/C=C\C/C=C\CCCC(=O)O [AA, Arachidonic acid]
recovery of growth and development defects [1]: significant recovery of growth and development defects
effect on lifespan [2]: did not affect the lifespan
hatching and brood size defects [3]: recovered

CCCCC/C=C\C/C=C\C/C=C\C/C=C\CCCC(=O)NCCO [AEA, N-arachidonoyl ethanolamine]
Ki [4, 10]: 1900 nM

CC/C=C\C/C=C\C/C=C\C/C=C\CCCCCCC(=O)NCCO [ω-3 AEA, Omega-3 N-arachidonoyl ethanolamine]
Ki [4, 10]: 1000 nM
IC50 ([5]; whole worm homogenate, 20 min 37 °C, AEA final 2 µM, read-out: IC50, competition with [3H] AEA hydrolysis): 36000 nM
IC50 ([6]; 20 min 37 °C, AEA final 2 µM, read-out: IC50, competition with [3H]-AEA hydrolysis): > 100000 nM

1/2-juniperoylglycerol [1/2-JG]
Ki [4, 9]: 1100 nM
competition with 2-OG hydrolysis [7]: competed
hydrolysis by MAGL (competition with tritiated 2-OG) [8]: readily hydrolyzed

Omega-3 1/2-arachidonoyl glycerol [ω-3 1/2-AG]
competition with 2-OG hydrolysis [7]: competed

CC/C=C\C/C=C\C/C=C\CCCC/C=C\CCCC(=O)O [JuA, Juniperonic acid]
recovery of growth and development defects [1]: significant recovery of growth and development defects
effect on lifespan [2]: did not affect the lifespan
reversal of growth delay and brood size reduction in RNAi knockdowns ([3]; fat-3(wa22) with fat-4 and elo-2 RNAi knockdown, JuA supplementation): could reverse the additional detrimental effects
hatching and brood size defects [3]: recovered

Source: article PMC7564282, “Juniperonic Acid Biosynthesis is Essential in Caenorhabditis elegans Lacking Δ6 Desaturase (fat-3) and Generates New ω-3 Endocannabinoids” (Cells, 2020)
